Consider one compound from patent US20240226117A1, “TREATMENT OF CONGENITAL ADRENAL HYPOPLASIA” (ReveraGen BioPharma, Inc., priority 2021, published 2024).

In one data set the test system is ambulant boys with DMD. Kind of data set: VBP15-004 growth (height Z score). It is filed as in vivo, human.
For data set [1], the system named is DMD participants. Kind of data set: Prespecified safety evaluation: height percentile for age and BMI z-score. It is filed as in vivo, human. On the procedure: As with the […] comparators, group-matching criteria were prespecified in the iSAP, and 2 independent statisticians carried out the participant matching. […] There was no corresponding 12-month assessment in vamorolone-treated participants. (Assessments of vamorolone-treated trial participants were 0, 3, 6, and 18 months). Standing height and weight were assessed at each study visit. Height z-score, body mass index (BMI: kg/m^2), and BMI z-score were calculated centrally. AE reporting was done per protocol in the vamorolone trials. The current study is the first to evaluate the longer-term tolerability, efficacy, and safety of vamorolone in DMD. […] Given the variable timing of dose escalations, it was prespecified that initial analyses of drug-related efficacy and safety would be limited to those participants who had 18 months of treatment with 2.0 mg/kg/day vamorolone or more (dose group C+dose group D: n=23). Outcomes for these participants were compared to a group-matched cohort from the […] over 18 months (corticosteroid-naïve, n=19: corticosteroid-treated, n=68). Participants were matched for age and treatment period (+1 month), matching criteria were prespecified in the statistical analysis plan. Two independent statisticians carried out the matching. […] Participants in the corticosteroid-treated […] group were treated for at least 18 months, but the total duration, dose, and regimens varied. Statistical analyses were done on paired longitudinal outcome data using an analysis of covariance (ANCOVA) approach with change from baseline (VBP15-002) to month 18 (midpoint of VBP15-LTE). Baseline response and age were included as covariates. For the vamorolone-treated participants, age was calculated as (date of informed consent minus birthdate)/365.25. For the DNHS participants, age was calculated as (date of baseline visit used minus birthdate)/365.25. The baseline visit for a DNHS participant was the first visit. […] Timed function tests were analyzed as velocity scores to limit the impact of participants who could not perform the test (velocity=0). Velocity measures are variance-stabilizing transformations, suppressing extreme raw outliers from raw values in seconds; these help with distributional assumptions of the statistical models/tests used. Raw data (seconds) are also reported. Velocity scores for […] (event/second), TTRW (meters/second), and […] (event/second) were inputted as 0 at the first response missing due to inability to perform the test. All other data were observed values only, without imputation. No adjustments for multiplicity on inferential statistics were specified in the iSAP.

Data set [2] has as its system DMD participants. The data set is described as follows: Morning serum cortisol (adrenal suppression). It is filed as in vivo, human. The conditions noted are these: 24-week trial. On the procedure: Two tests for adrenal insufficiency were used: morning cortisol (before drug) and ACTH stimulation tests. Adrenal suppression was measured via morning serum cortisol levels at Baseline, 12-weeks, and 24-weeks. The ACTH stimulation test was measured at Baseline and 24-weeks. Morning cortisol was measured in the clinic before daily drug administration. Morning cortisol levels were similar at Baseline (˜200 nmol/L) in all groups and remained stable over the 24-week trial in the Placebo Group.

A further data set deals with T1, glucocorticoid receptor (Homo sapiens, UniProt P04150).
T1 sequence (P04150 1-777): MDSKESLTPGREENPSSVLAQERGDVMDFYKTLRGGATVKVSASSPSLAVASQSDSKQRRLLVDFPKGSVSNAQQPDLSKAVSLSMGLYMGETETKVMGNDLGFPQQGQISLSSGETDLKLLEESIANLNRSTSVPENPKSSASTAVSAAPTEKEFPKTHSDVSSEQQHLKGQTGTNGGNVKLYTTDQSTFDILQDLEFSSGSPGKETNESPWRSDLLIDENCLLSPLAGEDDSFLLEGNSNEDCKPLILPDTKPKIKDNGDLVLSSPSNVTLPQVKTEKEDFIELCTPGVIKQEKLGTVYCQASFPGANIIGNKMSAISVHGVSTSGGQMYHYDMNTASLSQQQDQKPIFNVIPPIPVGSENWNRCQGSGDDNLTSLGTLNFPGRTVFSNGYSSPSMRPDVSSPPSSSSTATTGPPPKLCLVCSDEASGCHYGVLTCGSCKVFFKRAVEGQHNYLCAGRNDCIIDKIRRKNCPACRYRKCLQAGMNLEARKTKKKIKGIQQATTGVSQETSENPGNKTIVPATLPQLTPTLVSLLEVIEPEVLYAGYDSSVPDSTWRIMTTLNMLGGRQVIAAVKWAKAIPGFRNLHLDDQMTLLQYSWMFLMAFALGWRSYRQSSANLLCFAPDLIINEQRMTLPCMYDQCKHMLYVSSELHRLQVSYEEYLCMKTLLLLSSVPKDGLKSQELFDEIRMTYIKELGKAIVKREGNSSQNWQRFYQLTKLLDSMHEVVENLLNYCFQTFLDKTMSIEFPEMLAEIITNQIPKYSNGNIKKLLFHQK
The conditions noted are these: background statement; cited from earlier work.

[3] abbreviates: 18 months, vamorolone 2.0 or 6.0 mg/kg/day, DNHS corticosteroid doses and regimens varied.
Where [4] appears, read: vamorolone 18 months versus corticosteroid-naïve DNHS, ANCOVA.

With `C[C@@H]1C[C@H]2[C@@H]3CCC4=CC(=O)C=C[C@]4(C)C3=CC[C@]2(C)[C@@]1(O)C(=O)CO` [Vamorolone, 17α,21-dihydroxy-16α-methylpregna-1,4,9(11)-triene-3,20-dione], the “change in height Z scores from baseline to Week 24” value in the data set with ambulant boys with DMD (vamorolone 2.0 mg/kg/day) is on record as “overall stable height change Z scores”; in the data set with ambulant boys with DMD (vamorolone 6.0 mg/kg/day, p=0.02 versus prednisone), “increased growth rate”. In the data set with DMD participants [1] (setting [3]), the “Mean BMI z-score, 18-month value (SD)” value is on record as 1.46 (0.62). The “Mean BMI z-score, change from baseline (SD)” value with DMD participants [1] (setting [3]) is recorded as 0.411 (0.615); in the data set on DMD participants [1] (18 months, vamorolone 2.0 or 6.0 mg/kg/day, DNHS corticosteroid doses and regimens varied, listed as vamorolone) it was 0.41. The “Mean height percentile for age, 18-month value (SD)” value in the data set with DMD participants [1] (setting [3]) is on record as 35.24 (29.82). Also, in the data set with DMD participants [1] (DMD children treated with vamorolone, N = 22, 18 months treatment), the “LS Mean change in height percentiles for age” value was “+6.9”. Besides, the “BMI change from baseline to 18 months of treatment” value was 0.5 kg/m^2 in the data set on DMD participants [1] (original dose group B (0.75 mg/kg/day, escalated in LTE)); 1.11 kg/m^2 in the data set on DMD participants [1] (original dose group C (2.0 mg/kg/day)); 2.55 kg/m^2 with DMD participants [1] (original dose group D (6.0 mg/kg/day)). For the same compound, the “Mean height percentile for age, LS mean difference (SE)” value in the data set on DMD participants [1] (vamorolone 18-month treatment versus prednisone trial 12-month treatment, ANCOVA) is 10.37; in the data set on DMD participants [1] (setting [4]), 6.72 (3.48); in the data set with DMD participants [1] (vamorolone versus corticosteroid-treated DNHS, 18 months, ANCOVA), 15.86. Further, in the data set with DMD participants [1] (setting [4]), the “Mean BMI z-score, LS mean difference (SE)” value is recorded as 0.899 (0.204). Besides, the “growth stunting (mean change in height percentile versus corticosteroid-treated DNHS)” value in the data set on DMD participants [1] (vamorolone treatment group) is listed as “no evidence of growth stunting”. The “adrenal suppression by morning cortisol, compared with prednisone” value in the data set on DMD participants [2] (vamorolone 2.0 mg/kg/day, p=0.002) is “less adrenal suppression than prednisone”; in the data set with DMD participants [2] (vamorolone 6.0 mg/kg/day), “not significantly different from prednisone”. For the same compound, on glucocorticoid receptor, the “binding to the glucocorticoid receptor” value is recorded as “potently binds”.
